Assay results as given in paper PMC8018653, “Gender-based differences in brain and plasma pharmacokinetics of letrozole in sprague-dawley rats: Application of physiologically-based pharmacokinetic modeling to gain quantitative insights” (PLoS ONE, 2021).
Several values for one entry are separate records, joined by “and”; a condition that tells them apart may be missing. Identical values can stand only once. Like-named read-outs stand apart in the source and are kept apart here. Marks after values point to notes of the source that are not given here.

Columns and labels:
[1] = Whole body PBPK model with multi-compartment brain model (Simcyp Animal Simulator V17); set-up: species or system rat
Text: Simcyp Animal Simulator V17 (Certara Inc.) was employed for developing a bottom-up whole body PBPK model incorporating the specified multi-compartment brain model. Based on its anatomy and physiology, the whole brain is described by three compartments, viz. brain blood, brain mass and cerebrospinal fluid (CSF) as illustrated in Fig 1 (Simcyp® Rat Simulator). For model development, the physiological/ system-specific parameters were inferred from the existing rodent species within the animal simulator while, the key drug- specific parameters used are summarized in Table 1. Briefly, all the physiochemical and binding to blood components (plasma proteins and erythrocytes) parameters of letrozole were derived from expansive literature review. The first-order rate of absorption (Ka) and bioavailability following oral administration and systemic clearance values in male and female rats were obtained from a previously reported pharmacokinetic study and the first-order absorption model best fit the letrozole data. Full-PBPK model was employed for drug distribution while the Rodgers and Rowland method or “Method 2”, as defined in Simcyp v17, predicted the volume of distribution (Vss). For the multi-compartment brain model, the passive permeability-surface area product on the BBB (PSB) was determined using the Crone- Renkin Equation [25, 26]: PSB=−Fpfln(1−Kin/Fpf) (3) where, Fpf is the cerebral blood or perfusion flow rate and Kin is the brain uptake clearance. We used 0.036 mL/sec/g as the Fpf for letrozole, based on a previous study that obtained an average cerebral perfusion flow rate value for lipophilic compounds [25]. […] The passive permeability-surface area product on the blood-cerebrospinal fluid barrier (BCSFB), PSC, was assumed as half of the PSB [19, 27] while the passive permeability-surface area product on the cerebrospinal fluid-brain barrier (CSFBB), PSE, was set at 80 mL/min, assuming a high permeability of this barrier. Brain ECF concentrations were predicted using the in vivo unbound fraction in the brain (fu, brain) for letrozole multiplied by the simulated total brain concentrations. The fu, brain for letrozole was experimentally determined in both healthy and tumor-bearing female Sprague-Dawley rats (N = 4/ group). Following single dose intraperitoneal administration of 4 mg/kg letrozole, both brain ECF (representative of unbound drug concentration in the brain) and whole brain tissue samples were collected at the same corresponding timepoint around the Tmax (~6 hrs) of letrozole in brain ECF and the fu, brain was calculated based on the ratio of observed brain ECF to the whole brain tissue homogenate concentrations of letrozole (0.58 ± 0.19; mean ± SD).
For evaluation of model predictions, the PBPK model developed was used to simulate extravascular administration of single/ multiple doses of letrozole (4 mg/kg) in rodents. To evaluate the predictive performance of the PBPK model, we compared the ratio of the predicted exposure change (Cmax and AUC ratios) against the observed data. A 1.25-fold under‐ or over‐prediction was considered good and within 1.5‐fold was deemed reasonable.

[2] = Passive permeability-surface area products by Crone-Renkin equation
Text: Simcyp Animal Simulator V17 (Certara Inc.) was employed for developing a bottom-up whole body PBPK model incorporating the specified multi-compartment brain model. Based on its anatomy and physiology, the whole brain is described by three compartments, viz. brain blood, brain mass and cerebrospinal fluid (CSF) as illustrated in Fig 1 (Simcyp® Rat Simulator). For model development, the physiological/ system-specific parameters were inferred from the existing rodent species within the animal simulator while, the key drug- specific parameters used are summarized in Table 1. Briefly, all the physiochemical and binding to blood components (plasma proteins and erythrocytes) parameters of letrozole were derived from expansive literature review. […] Full-PBPK model was employed for drug distribution while the Rodgers and Rowland method or “Method 2”, as defined in Simcyp v17, predicted the volume of distribution (Vss). For the multi-compartment brain model, the passive permeability-surface area product on the BBB (PSB) was determined using the Crone- Renkin Equation [25, 26]: PSB=−Fpfln(1−Kin/Fpf) (3) where, Fpf is the cerebral blood or perfusion flow rate and Kin is the brain uptake clearance. […] The passive permeability-surface area product on the blood-cerebrospinal fluid barrier (BCSFB), PSC, was assumed as half of the PSB [19, 27] while the passive permeability-surface area product on the cerebrospinal fluid-brain barrier (CSFBB), PSE, was set at 80 mL/min, assuming a high permeability of this barrier. Brain ECF concentrations were predicted using the in vivo unbound fraction in the brain (fu, brain) for letrozole multiplied by the simulated total brain concentrations. The fu, brain for letrozole was experimentally determined in both healthy and tumor-bearing female Sprague-Dawley rats (N = 4/ group).

[3] = cited from earlier work
[4] = PBPK input; ref Chemicalize database; cited from earlier work
[5] = set-up: method as in PMID 11501174; conditions: cited from earlier work; for CLpo: assuming 250 g average body weight
[6] = set-up: method as in PMID 16489364; conditions: cited from earlier work
[7] = set-up: method as in PMID 17045772; conditions: rat liver microsomes; cited from earlier work
[8] = Steady state brain ECF pharmacokinetics by intracerebral microdialysis; conditions: for Kp uu at 264 h / Kp uu / Kp uu at 120 h: intraperitoneal; for Kp uu at 264 h: 11 days; for Kp uu: Kpuu, range over single dose and steady state (Cmax and AUC0-12); for Kp uu at 120 h: 5 days
Experimental: The average in vitro relative recovery of letrozole was determined at a flow rate of 2.0 μ1/min at 35°C.
Microdialysis probes were surgically implanted in jugular vein cannulated rats under anesthesia (ketamine/ xylazine 70/ 6 mg/kg i.p., Henry Schein, NY) one day prior to the experiment. Buprenorphine (Buprenex®, Henry Schein, NY) was administered for perioperative analgesia. The probe was inserted into the striatum with the following tip coordinates: A/P, 1.2 mm, L, 3.1 mm, and D/V −7.8 mm, according to the stereotaxic atlas of Paxinos and Watson [21]. The active portion of the membrane for the probes was 4.5 mm. Following implantation, the probes were connected to an infusion pump set to deliver modified Dulbecco’s phosphate buffered saline containing 1.2 mm CaCl2 and 5 mM glucose at a flow rate of 1 μl/min overnight.
To establish the steady state, letrozole was administered via the intraperitoneal route at a dose of 4mg/kg o.d for 11 days (female rats) and 5 days (male rats) based on the previously published data and our preliminary experiments. On the day of the experiment (last day of dosing), blood and dialysis samples were collected concurrently as described above at the following time points- pre-dose, 1, 2, 4, 6, 8 and12 h post administration. An additional 24 hr time point was included in the plasma sample collection and all the samples were stored at -80°C until analyzed.
Three sets of calibration plots were constructed for method validation.
Non-compartmental analysis (NCA) was performed using Phoenix WinNonlin® software (version 6.2.1, Pharsight, St. Louis, MO, USA) and the PK parameters determined included peak concentration (Cmax), time to reach peak concentration (Tmax), area under the concentration-time curve between time zero to the last observed concentration time point (AUC0- t) and the elimination half-life (t1/2). Actual sampling times were employed for calculations except for the pre-dose times, which were kept as zero. Since the blood sampling period spanned less than 4.5 half-lives in female rats, plasma AUC0-∞ values could not be determined reliably. Consequently, we were constrained to reporting AUC0-t values for letrozole in this study which was calculated using the linear trapezoidal method. For consistency, only AUC0-t values were reported for male rats as well. Cmax and Tmax values were obtained directly from the concentration-time data. […] Brain ECF concentrations were time-averaged over the collection interval and were corrected for the observed relative recovery. The brain-to-plasma unbound partition coefficients (Kpuu) were calculated as a ratio of the Cmax or AUC0-12 of letrozole levels in the brain ECF to corresponding plasma Cmax and AUC values corrected for plasma protein binding.

[9] = females, steady state, 4 mg/kg for 11 days
[10] = males, steady state, 4 mg/kg for 5 days

AUC 0–12, brain ECF, predicted/observed ratio ([1]; females, single dose 4 mg/kg): 0.81 | AUC 0–72, plasma, predicted/observed ratio ([1]; females, single dose 4 mg/kg): 0.95 | Cmax, brain ECF, predicted/observed ratio ([1]; females, single dose 4 mg/kg): 0.71 | Cmax, plasma, predicted/observed ratio ([1]; females, single dose 4 mg/kg): 0.90 | Half-life t1/2, plasma, predicted/observed ratio ([1]; females, single dose 4 mg/kg): 1.29 | AUC 0–12, brain ECF, predicted/observed ratio [1, 9]: 0.78 | AUC 0–24, plasma, predicted/observed ratio [1, 9]: 0.77 | Cmax, brain ECF, predicted/observed ratio [1, 9]: 0.66 | Cmax, plasma, predicted/observed ratio [1, 9]: 0.76 | AUC 0–12, brain ECF, predicted/observed ratio ([1]; males, single dose 4 mg/kg): 1.29 | AUC 0–72, plasma, predicted/observed ratio ([1]; males, single dose 4 mg/kg): 0.85 | Cmax, brain ECF, predicted/observed ratio ([1]; males, single dose 4 mg/kg): 1.19 | Cmax, plasma, predicted/observed ratio ([1]; males, single dose 4 mg/kg): 0.75 | Half-life t1/2, plasma, predicted/observed ratio ([1]; males, single dose 4 mg/kg): 1.45 | AUC 0–12, brain ECF, predicted/observed ratio [1, 10]: 1.07 | AUC 0–24, plasma, predicted/observed ratio [1, 10]: 0.87 | Cmax, brain ECF, predicted/observed ratio [1, 10]: 0.96 | Cmax, plasma, predicted/observed ratio [1, 10]: 0.80 | PSC (passive permeability-surface area product on the BCSFB) ([2]; Assumed to be half of PSB): 0.42 mL/min | PSB (passive permeability-surface area product on the BBB) ([2]; Determined using Eq (3), assuming 1800 mg brain weight): 0.84^b mL/min | accumulation at steady state (brain ECF Cmax and AUC0-12) ([8]; female rats): 3.5 to 4.0 fold | predicted steady state average concentration, brain ECF ([8]; female rats): ~1,000 ng/ml | Rac brain (observed accumulation ratio, AUC0-12) ([8]; female rats, Day 11 / Day 1): 4.2 | Rac brain (observed accumulation ratio, Cmax) ([8]; female rats, Day 11 / Day 1): 3.5 | Kp uu at 264 h ([8]; female, Sprague-Dawley, rat, brain ECF / unbound plasma, 4 mg/kg, Kpuu (AUC0-12 brain ECF / plasma unbound), female rats, steady state): 1.3 | Kp uu at 264 h ([8]; female, Sprague-Dawley, rat, brain ECF / unbound plasma, 4 mg/kg, Kpuu (Cmax brain ECF / plasma unbound), female rats, steady state): 1.2 | Kp uu ([8]; female, Sprague-Dawley, rat, brain ECF / unbound plasma, 4 mg/kg, female rats): 1.2 to 1.4 | accumulation at steady state (brain ECF Cmax and AUC0-12) ([8]; male rats): 2.0 fold | predicted steady state average concentration, brain ECF ([8]; male rats): ~210 ng/mL | Rac brain (observed accumulation ratio, AUC0-12) ([8]; male rats, Day 5 / Day 1): 2.0 | Rac brain (observed accumulation ratio, Cmax) ([8]; male rats, Day 5 / Day 1): 1.9 | Kp uu at 120 h ([8]; male, Sprague-Dawley, rat, brain ECF (striatal microdialysate) / unbound plasma, 4 mg/kg, Kpuu (AUC0-12 brain ECF / plasma unbound), male rats, steady state): 0.9 | Tmax ([8]; male, Sprague-Dawley, rat, brain ECF (striatal microdialysate), ip, 4 mg/kg): 3.3 h | AUC(0-t) ([8]; male, Sprague-Dawley, rat, brain ECF (striatal microdialysate), ip, 4 mg/kg, AUC 0–12, brain ECF, male rats, steady state, 4 mg/kg i.p. daily for 5 days): 4820 ng·h/mL | AUC(0-t) ([8]; male, Sprague-Dawley, rat, brain ECF (striatal microdialysate), ip, 4 mg/kg, brain ECF AUC 0–12, male rats, steady state, 4 mg/kg i.p. daily for 5 days): 4800 ng·h/mL | Kp uu at 120 h ([8]; male, Sprague-Dawley, rat, brain ECF / unbound plasma, 4 mg/kg, Kpuu (Cmax brain ECF / plasma unbound), male rats, steady state): 0.9 | Kp uu ([8]; male, Sprague-Dawley, rat, brain ECF / unbound plasma, 4 mg/kg, male rats): 0.6 to 0.9 | brain ECF exposure (Cmax, AUC0-12), higher in female rats ([8]; steady state): 4.7 to 5 fold
Compound: N#Cc1ccc(C(c2ccc(C#N)cc2)n2cncn2)cc1 [letrozole]
PSB ([2]; Eq (3)): bBased on PSB = 0.469 mL/min/g brain weight, assuming 1800 mg brain weight. | Blood-to-plasma partition ratio ([3]; PBPK input, ref CDER NDA 20–726): 0.8 | plasma protein binding [3]: ≈ 60% | Intrinsic solubility [4]: 62 µg/mL | logP [4]: ≈ 2.5 | Fa ([5]; PBPK input): 0.99 | CLpo ([5]; females): 0.21 mL/min | CL ([5]; females): 0.85 mL/min/kg | Ka (first-order rate of absorption) ([5]; females): 0.49 h⁻¹ | CLpo ([5]; males): 0.77 mL/min | CL ([5]; males): 3.08 mL/min/kg | Ka (first-order rate of absorption) ([5]; males): 0.29 h⁻¹ | oral bioavailability [6]: ~100% | overall intrinsic clearance and formation rate of the carbinol metabolite, male versus female rats [7]: about 3.0 fold | Cmax, brain ECF ([8]; male rats, steady state, 4 mg/kg i.p. daily for 5 days, 4 mg/kg): 490 ± 240 ng/ml and 490 (240) ng/ml and 490 ng/ml
